Each structure is given as a SMILES string.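 Cultured in 96-well plates, cells were exposed to test compound for 48 hours across five concentrations. The concentration for full growth arrest is given as TGI.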 Where only a bound is given, the exact number is not on record here.

For one assay, the system named is SF-539 CNS. Description: growth of human tumour cells (NCI), 48 h.
`CCOC(=O)c1c(NC(=O)OC)c(C#N)c2n1CCCCC2`: the TGI was greater than 100 µM.

On to `COc1ccc(-c2nc(-c3cc4c(ccc5ccccc54)oc3=O)cs2)cc1`, for which the TGI is greater than 100 µM.

In turn, `CC1=CCC(C)=Nc2nc3ccccc3n21` showed a TGI greater than 100 µM.

`N#Cc1[nH]c(=S)[nH]c1N` displayed a TGI greater than 100 µM.

For `Cc1ccccc1N/C(=C(/C(Cl)=C(Cl)Cl)[N+](=O)[O-])n1nnc2ccccc21`, the TGI was 39.1 µM.

Take `CNS(=O)(=O)NNS(=O)(=O)c1ccc(Br)cc1`: the TGI is greater than 100 µM.

`CCC1CCc2c(c(=O)oc3c2cc(OC)c2cccc(OC)c23)C1` (stereo unspecified) displayed a TGI greater than 100 µM.

For `COC(=O)C1=C(C(=O)Nc2cccnc2Cl)N(c2ccc(OC)cc2[N+](=O)[O-])C(c2ccc(C)cc2)=CC1c1ccc(OC)cc1OC` (stereo unspecified), the TGI is 16.7 µM.

The subject of another assay is SNB-19 CNS. Nature of the assay: growth of human tumour cells (NCI), 48 h.
The compound `Nc1nc(NCC2(CO)CC2)cc(=O)[nH]1` displayed a TGI greater than 100 µM.

For the compound `S=c1[nH]c(=S)c2nnn(-c3ccccc3)c2[nH]1`, the TGI was greater than 100 µM.

`Cc1ccc(-c2n[nH]c(=O)n2/N=C\c2ccc([N+](=O)[O-])cc2)cc1` yielded a TGI greater than 100 µM.

`COc1ccc2c(c1)C(=O)OCCC2`: the TGI was greater than 100 µM.

`COc1ccc(-n2cnn3c(=O)c4cn[nH]c4nc23)cc1` gave a TGI greater than 10 µM.

Take `COc1ccc2c(c1)nc1n2C(c2c(Cl)cccc2Cl)SC1` (stereo unspecified): the TGI was greater than 92.7 µM.

In turn, `CCOC(=O)c1c(NC(=O)OC)c(C#N)c2n1CCCCC2` came in with a TGI greater than 100 µM.

`COc1ccc(-c2nc(-c3cc4c(ccc5ccccc54)oc3=O)cs2)cc1` yielded a TGI greater than 100 µM.

Take `Cc1cc(C)c(C(=O)c2nnc3ccccc3c2N)c(C)c1`: the TGI was greater than 100 µM.

`CC1=CCC(C)=Nc2nc3ccccc3n21`: the TGI was greater than 100 µM.

`N#Cc1[nH]c(=S)[nH]c1N` gave a TGI greater than 100 µM.

With `Cc1ccccc1N/C(=C(/C(Cl)=C(Cl)Cl)[N+](=O)[O-])n1nnc2ccccc21`, the TGI amounted to 46.8 µM.

`CNS(=O)(=O)NNS(=O)(=O)c1ccc(Br)cc1` came in with a TGI greater than 100 µM.

`Cc1ccc(NC(=O)CSc2nnc(-c3ccc(N=Cc4ccc(Cl)cc4)cc3)o2)cc1` displayed a TGI greater than 100 µM.

`CCC1CCc2c(c(=O)oc3c2cc(OC)c2cccc(OC)c23)C1` (stereo unspecified) yielded a TGI greater than 100 µM.

Compound `COC(=O)C1=C(C(=O)Nc2cccnc2Cl)N(c2ccc(OC)cc2[N+](=O)[O-])C(c2ccc(C)cc2)=CC1c1ccc(OC)cc1OC` (stereo unspecified) gave a TGI greater than 88.6 µM.

The subject of another assay is SNB-75 CNS. Nature of the assay: growth of human tumour cells (NCI), 48 h.
Consider `Cc1nn(C(=O)Cc2ccccc2)c2c1C(c1ccc(Cl)cc1)SC(N)=N2` (stereo unspecified), for which the TGI came to 96.9 µM.

For `Nc1nc(NCC2(CO)CC2)cc(=O)[nH]1`, the TGI is greater than 100 µM.

With `S=c1[nH]c(=S)c2nnn(-c3ccccc3)c2[nH]1`, the TGI is greater than 100 µM.

`Cc1ccc(-c2n[nH]c(=O)n2/N=C\c2ccc([N+](=O)[O-])cc2)cc1` gave a TGI greater than 100 µM.

For the compound `COc1ccc2c(c1)C(=O)OCCC2`, the TGI is greater than 100 µM.

`COc1ccc(-n2cnn3c(=O)c4cn[nH]c4nc23)cc1`: the TGI was greater than 10 µM.

On to `COc1ccc2c(c1)nc1n2C(c2c(Cl)cccc2Cl)SC1` (stereo unspecified), for which the TGI was greater than 75.1 µM.

In the case of `CCOC(=O)c1c(NC(=O)OC)c(C#N)c2n1CCCCC2`, the TGI was greater than 100 µM.

Take `COc1ccc(-c2nc(-c3cc4c(ccc5ccccc54)oc3=O)cs2)cc1`: the TGI was greater than 100 µM.

Turning to `Cc1cc(C)c(C(=O)c2nnc3ccccc3c2N)c(C)c1`, the TGI stood at 86.3 µM.

Take `N#Cc1[nH]c(=S)[nH]c1N`: the TGI was greater than 100 µM.

Turning to `Cc1ccccc1N/C(=C(/C(Cl)=C(Cl)Cl)[N+](=O)[O-])n1nnc2ccccc21`, the TGI came out at 34.2 µM.

`CNS(=O)(=O)NNS(=O)(=O)c1ccc(Br)cc1` showed a TGI greater than 100 µM.

`Cc1ccc(NC(=O)CSc2nnc(-c3ccc(N=Cc4ccc(Cl)cc4)cc3)o2)cc1` gave a TGI greater than 100 µM.

In turn, `CCC1CCc2c(c(=O)oc3c2cc(OC)c2cccc(OC)c23)C1` (stereo unspecified) came in with a TGI greater than 100 µM.

Compound `COC(=O)C1=C(C(=O)Nc2cccnc2Cl)N(c2ccc(OC)cc2[N+](=O)[O-])C(c2ccc(C)cc2)=CC1c1ccc(OC)cc1OC` (stereo unspecified) displayed a TGI of 72.3 µM.

In a further assay the test system is SW-620 colon. Description: growth of human tumour cells (NCI), 48 h.
In turn, `Cc1nn(C(=O)Cc2ccccc2)c2c1C(c1ccc(Cl)cc1)SC(N)=N2` (stereo unspecified) displayed a TGI greater than 100 µM.

Turning to `Nc1nc(NCC2(CO)CC2)cc(=O)[nH]1`, the TGI was greater than 100 µM.

For the compound `S=c1[nH]c(=S)c2nnn(-c3ccccc3)c2[nH]1`, the TGI is greater than 100 µM.

The compound `Cc1ccc(-c2n[nH]c(=O)n2/N=C\c2ccc([N+](=O)[O-])cc2)cc1` yielded a TGI greater than 100 µM.

In the case of `COc1ccc2c(c1)C(=O)OCCC2`, the TGI is greater than 100 µM.

`COc1ccc2c(c1)nc1n2C(c2c(Cl)cccc2Cl)SC1` (stereo unspecified): the TGI is greater than 53.8 µM.

Regarding `CCOC(=O)c1c(NC(=O)OC)c(C#N)c2n1CCCCC2`, the TGI is greater than 100 µM.

In turn, `COc1ccc(-c2nc(-c3cc4c(ccc5ccccc54)oc3=O)cs2)cc1` showed a TGI greater than 100 µM.

In the case of `Cc1cc(C)c(C(=O)c2nnc3ccccc3c2N)c(C)c1`, the TGI is greater than 100 µM.

On to `CC1=CCC(C)=Nc2nc3ccccc3n21`, for which the TGI is greater than 100 µM.

The compound `N#Cc1[nH]c(=S)[nH]c1N` displayed a TGI greater than 100 µM.

The compound `Cc1ccccc1N/C(=C(/C(Cl)=C(Cl)Cl)[N+](=O)[O-])n1nnc2ccccc21` registered a TGI of 29.4 µM.

Compound `CNS(=O)(=O)NNS(=O)(=O)c1ccc(Br)cc1` registered a TGI greater than 100 µM.

As for `Cc1ccc(NC(=O)CSc2nnc(-c3ccc(N=Cc4ccc(Cl)cc4)cc3)o2)cc1`, the TGI was greater than 100 µM.

In the case of `COC(=O)C1=C(C(=O)Nc2cccnc2Cl)N(c2ccc(OC)cc2[N+](=O)[O-])C(c2ccc(C)cc2)=CC1c1ccc(OC)cc1OC` (stereo unspecified), the TGI amounted to 22.7 µM.

The next assay deals with UACC-62 melanoma. Nature of the assay: growth of human tumour cells (NCI), 48 h.
Turning to `Cc1nn(C(=O)Cc2ccccc2)c2c1C(c1ccc(Cl)cc1)SC(N)=N2` (stereo unspecified), the TGI was greater than 100 µM.

Consider `Nc1nc(NCC2(CO)CC2)cc(=O)[nH]1`, for which the TGI is greater than 100 µM.

In turn, `S=c1[nH]c(=S)c2nnn(-c3ccccc3)c2[nH]1` had a TGI greater than 100 µM.

For `Cc1ccc(-c2n[nH]c(=O)n2/N=C\c2ccc([N+](=O)[O-])cc2)cc1`, the TGI is greater than 100 µM.

In turn, `COc1ccc2c(c1)C(=O)OCCC2` gave a TGI greater than 100 µM.

Take `COc1ccc2c(c1)nc1n2C(c2c(Cl)cccc2Cl)SC1` (stereo unspecified): the TGI is greater than 100 µM.

`CCOC(=O)c1c(NC(=O)OC)c(C#N)c2n1CCCCC2` showed a TGI greater than 100 µM.

Regarding `COc1ccc(-c2nc(-c3cc4c(ccc5ccccc54)oc3=O)cs2)cc1`, the TGI is greater than 100 µM.

For `Cc1cc(C)c(C(=O)c2nnc3ccccc3c2N)c(C)c1`, the TGI was 62.1 µM.

Turning to `CC1=CCC(C)=Nc2nc3ccccc3n21`, the TGI was greater than 100 µM.

Consider `N#Cc1[nH]c(=S)[nH]c1N`, for which the TGI was greater than 100 µM.

`Cc1ccccc1N/C(=C(/C(Cl)=C(Cl)Cl)[N+](=O)[O-])n1nnc2ccccc21`: the TGI was 71.9 µM.

In turn, `CNS(=O)(=O)NNS(=O)(=O)c1ccc(Br)cc1` came in with a TGI greater than 100 µM.

In turn, `Cc1ccc(NC(=O)CSc2nnc(-c3ccc(N=Cc4ccc(Cl)cc4)cc3)o2)cc1` showed a TGI greater than 100 µM.

In the case of `CCC1CCc2c(c(=O)oc3c2cc(OC)c2cccc(OC)c23)C1` (stereo unspecified), the TGI was greater than 100 µM.

On to `COC(=O)C1=C(C(=O)Nc2cccnc2Cl)N(c2ccc(OC)cc2[N+](=O)[O-])C(c2ccc(C)cc2)=CC1c1ccc(OC)cc1OC` (stereo unspecified), for which the TGI is greater than 100 µM.

The values above are taken from PubChem BioAssay (NCI).
